The text below walks through data of US5036080A, “(D)-6-fluoro-2,3-dihydro-2',5-dioxo-spiro[4H-1-benzo pyran-4,4'-imidazolide]-2-carboxamide compounds” (Sanwa Kagaku Kenyusho Co., Ltd., priority 1988, dated 1991).

Each structure is given as a SMILES string.

Assay [1] concerns aldose reductase. The note with it: cited from earlier work.
The target of assay [2] is T1, aldose reductase (Rattus norvegicus, UniProt P07943).
T1 construct: water-soluble extracts of crystalline lenses extracted from tested rats; from tissue; host or cells: rat crystalline lens, water-soluble extract
Put plainly: Inhibition of aldose reductase activity (procedure of Kador and Sharpless). The format is biochemical. The note with it: water-soluble extracts of crystalline lenses from rats. The protocol: Using water-soluble extracts of crystalline lenses extracted from tested rats, the inhibition of these compounds was determined.

Take `NC(=O)[C@H]1CC2(NC(=O)NC2=O)c2cc(F)ccc2O1` (single isomer, unassigned) [(d)-6-fluoro-2,3-dihydro-2',5'-dioxo-spiro[4H-1-benzopyran-4,4'-imidazolidine]-2-carboxamide]: the “activity of inhibition to the aldose reductase in vitro and vivo tests, in comparison with other agents (in words)” value in the assay on aldose reductase [1] is given as “remarkable activity of inhibition to the aldose reductase”. What is called IC50 is the concentration needed to halve the response being measured. `COC(=O)N1C(=O)NC2(CC(C(N)=O)Oc3ccc(F)cc32)C1=O` (single isomer, unassigned) [Example 3] yielded a concentration for half-maximal inhibition (IC50) at aldose reductase [2] of 0.045 µM. The same measure, in the same setting: to `CC(C)(C)C(=O)OCN1C(=O)NC2(C[C@H](C(N)=O)Oc3ccc(F)cc32)C1=O` (single isomer, unassigned) [Example 6, (d)-6-Fluoro-1'-pivaloyloxymethyl-2,3-dihydro-2',5'-dioxo-spiro[4H-1-benzopyran-4,4'-imidazolidine]-2-carboxamide] belongs 100 µM.

On to `Cc1ccc(S(=O)(=O)N2C(=O)NC3(C[C@H](C(N)=O)Oc4ccc(F)cc43)C2=O)cc1` (single isomer, unassigned) [Example 16-A, (d)-6-fluoro-1'-(p-toluenesulfonyl)-2,3-dihydro-2',5'-dioxo-spiro[4H-1-benzopyran-4,4'-imidazolidine]-2-carboxamide], for which the IC50 against aldose reductase [2] was determined as 100 µM.
